Experimental findings from patent US20240050465A1, “HYDROGEN WATER FOR PREVENTION OF ALCOHOLIC HEPATOPATHY” (NIHON TRIM CO., LTD., priority 2021, published 2024) are described below.

Like-named read-outs stand apart in the source and are kept apart here.

For this data set, the system named is HepG2 cells. The following applies: 24 hours; for Cell viability: vs 0% ethanol.

Procedure: A HepG2 cell line, which is human liver cancer-derived cells, was obtained from Riken Bioresource Research Center (RIKEN BRC) and cultured in DMEM containing 10% fetal bovine serum (FBS) (Sigma-Aldrich, F7524) and 1% penicillin-streptomycin (manufactured by FUJIFILM Wako Pure Chemical Corporation, trade name: 168-23191) under conditions of 37° C. and 5% CO2.

Turning to `CCO` [Ethanol, ethanol], the Viable cell count is 9.48 × 10^4 cells/well (HepG2, ethanol 0.25%); 9.37 × 10^4 cells/well (HepG2, ethanol 0.5%); 8.22 × 10^4 cells/well (HepG2, ethanol 1%); 6.05 × 10^4 cells/well (HepG2, ethanol 2%); 4.87 × 10^4 cells/well (HepG2, ethanol 4%); 0.35 × 10^4 cells/well (HepG2, ethanol 8%). Further, the Cell viability by setting is: (HepG2, ethanol 0.25%) 96.7%; (HepG2, ethanol 0.5%) 95.6%; (HepG2, ethanol 1%) 83.8%; (HepG2, ethanol 2%) 61.7%; (HepG2, ethanol 4%) 49.7%; (HepG2, ethanol 8%) 3.6%.
